# From US20080233558A1, “Inhibitors of viral entry screening method” (priority 2005, published 2008)
# Legend:
# [1] = tested on: MLV(VSV-G Env) particles that transduce a gfp-gene; format: cell-based
# [2] = tested on: MLV(VSV-G Env) pseudotype particles; format: cell-based
# [3] = tested on: MLV(VSV-G Env) pseudotype particles; format: cell-based; remark: listed apart in the source
# [4] = tested on: indicator cells (HEK293T expressing tPA-HA); conditions: increasing inhibitor concentrations up to 1 mM; due to cytotoxic effects
smiles,measurement,setting,value
Cc1cn([C@H]2C[C@H](N=[N+]=[N-])[C@@H](CO)O2)c(=O)[nH]c1=O [AZT],gfp fluorescence signal at the highest inhibitor concentration,[1],lowest fluorescence signal
same,cell populations after α-HA antibody staining,[2],just one (fluorescence positive) population
same,fluorescence readout signal with increasing concentrations of the inhibitor,[3],increased signal intensities
same,readout signal at concentrations higher than the optimal concentration,[3],decreased readout signals
same,fluorescence signal of indicator cells in absence of any particles,[4],decreasing fluorescence intensities
